Experimental data: ChEMBL document CHEMBL1150899, “Novel quinone methides from Salacia kraussii with in vitro antimalarial activity” (J Nat Prod, 1998)
In brackets after ≈: the same amount, converted by molar mass.

Legend:
[1] = test system: Plasmodium falciparum; experiment: Antiplasmodial activity against chloroquine-resistant Plasmodium falciparum K1 infected human erythrocytes as [3H]hypoxanthine uptake; assay type: functional, organism-based
[2] = test system: Plasmodium falciparum; experiment: Antiplasmodial activity against chloroquine-sensitive Plasmodium falciparum NF54 infected human erythrocytes as [3H]hypoxanthine uptake; assay type: functional, organism-based
[3] = test system: HT-29; experiment: Cytotoxicity against human HT-29 cells after 72 hrs by Alamar blue assay; assay type: functional, cell-based; conditions: HT-29, 72 h
[4] = test system: Mus musculus; experiment: Toxicity against Plasmodium berghei-infected mice (Mus musculus) assessed as mortality at 10 mg/kg, subcutaneously after 1 day; assay type: organism-based; design: dose 10 mg/kg, route subcutaneous; conditions: in vivo, sc, 24 h

C=C1CC[C@]2(C=O)CC[C@]3(C)C4=CC=C5C(=CC(=O)C(O)=C5C)[C@]4(C)CC[C@@]3(C)[C@@H]2C1
IC50 [1]: 0.094 µg/mL (≈ 0.225 µM) | IC50 [2]: 0.0799 µg/mL (≈ 0.191 µM)

C=C1CC[C@]2(C(=O)OC)CC[C@]3(C)C4=CC=C5C(=CC(=O)C(O)=C5C)[C@]4(C)CC[C@@]3(C)[C@@H]2C1
IC50 [1]: 0.0276 µg/mL (≈ 0.0615 µM) | IC50 [2]: 0.0371 µg/mL (≈ 0.0827 µM) | IC50 [3]: 2.38 µg/mL (≈ 5.31 µM) | Activity [4]: Toxic

C=C1CC[C@]2(CO)CC[C@]3(C)C4=CC=C5C(=CC(=O)C(O)=C5C)[C@]4(C)CC[C@@]3(C)[C@@H]2C1
IC50 [1]: 0.114 µg/mL (≈ 0.272 µM) | IC50 [2]: 0.14 µg/mL (≈ 0.333 µM) | IC50 [3]: 6.06 µg/mL (≈ 14.4 µM)

CC1=C(O)C(=O)C=C2C1=CC=C1[C@@]2(C)CC[C@@]2(C)[C@@H]3C[C@](C)(C(=O)O)CC[C@]3(C)CC[C@]12C [CELASTROL]
IC50 [1]: 0.181 µg/mL (≈ 0.401 µM) | IC50 [2]: 0.254 µg/mL (≈ 0.564 µM) | IC50 [3]: 1.3 µg/mL (≈ 2.88 µM)

CCN(CC)CCCC(C)Nc1ccnc2cc(Cl)ccc12 (centres undefined) [CHLOROQUINE]
IC50 [3]: 58 µg/mL (≈ 181 µM)

CC1=C(O)C(=O)C=C2C1=CC=C1[C@@]2(C)CC[C@@]2(C)[C@@H]3C[C@H](CO)CC[C@]3(C)CC[C@]12C [ISOIGUESTEROL]
IC50 [1]: 0.0229 µg/mL (≈ 0.0542 µM) | IC50 [2]: 0.0541 µg/mL (≈ 0.128 µM) | IC50 [3]: 2.43 µg/mL (≈ 5.75 µM)

COC(=O)[C@]1(C)CC[C@]2(C)CC[C@]3(C)C4=CC=C5C(=CC(=O)C(O)=C5C)[C@]4(C)CC[C@@]3(C)[C@@H]2C1 [PRISTIMERIN]
IC50 [1]: 0.19 µg/mL (≈ 0.41 µM) | IC50 [2]: 0.271 µg/mL (≈ 0.583 µM) | IC50 [3]: 4.6 µg/mL (≈ 9.9 µM)
